Measured values taken from publication PMC7399337, “Biological Properties and Absolute Configuration of Flavanones From Calceolaria thyrsiflora Graham” (Frontiers in Pharmacology, 2020).
Values after ≈ are worked out from the molar mass of the structure shown. Read-outs that look alike come from different tables or passages of the source.

Experiments:
E. coli ATCC25922 = experiment: Antibacterial MIC, CLSI microdilution, human pathogens; assay type: cell-based; details: Escherichia coli, 18 h, read-out: Minimum inhibitory concentration (MIC)
Method: (§1) Briefly, stock solutions (5 mg/ml) of compounds in DMSO were diluted in Mueller-Hinton broth (MHB) to the different two-fold assay concentrations. […] The obtained solution was added to MHB and serially two-fold diluted in a 96-well microplate. A sample of 100 μL of inoculum 1.5 × 10^6 colony forming unit (CFU) ml^-1 in MHB was added and then incubated at 37°C for 18 h. The assay was repeated three times. Wells containing MHB, 100 μL of inoculum, and DMSO served as negative controls.

S. aureus MRSA 622-4 = experiment: as above; assay type: cell-based; details: Staphylococcus aureus, 18 h, read-out: Minimum inhibitory concentration (MIC)
Method: as §1

S. aureus NTCC8325-4 = experiment: as above; assay type: cell-based; details: Staphylococcus aureus, NTCC83254, 18 h, read-out: Minimum inhibitory concentration (MIC)
Method: as §1

S. aureus MRSA 97-7 = experiment: as above; assay type: cell-based; details: Staphylococcus aureus, 18 h, read-out: Minimum inhibitory concentration (MIC)
Method: as §1

E. coli 33.1 = experiment: as above; assay type: cell-based; details: Escherichia coli; E. coli 33.1 (multi-resistant); 18 h; read-out: Minimum inhibitory concentration (MIC)
Method: as §1

[1] = In vitro cytotoxic activity, CyQuant cell viability, 72 h; assay type: cell-based; details: mouse
Method: (§2) The used cell lines include MDA-MB-231 human breast adenocarcinoma cells, B16-F10 mouse metastatic melanoma cells and MEF primary mouse embryonic fibroblast. Cells were maintained in a DMEM high glucose medium (Mediatech, Manassas, VA, USA) supplemented with 10% (MDA-MB-231 and B16-F10) or 15% (MEF) heat-inactivated fetal bovine serum (HyClone Laboratories, South Logan, USA), 100 IU ml^-1 penicillin and 100 μg ml^-1 streptomycin while maintained at 37°C in a 5% CO2 humidified atmosphere. Cell viability was measured using a CyQuant® Direct Cell Proliferation Assay Kit (Life Technologies, Grand Island, NY, USA) following the manufacturer’s instruction. Briefly, 5,000 cells per well were seeded onto a flat-bottom 96-well plate in 200 μL final volume. Six hours after seeding, the culture medium was replaced by the medium containing the tested compounds at 0.01 to 100 µM concentrations in DMSO (0.1% final concentration) during 72 h. Untreated cells (medium containing only 0.1% DMSO) were used as controls. At the end of the incubation, 100 μL of culture medium was removed from each well and replaced by detection reagent solution provided by the kit (which is a 1:5 mixture of the reagent CyQUANT®, direct nucleic acid stain and the reagent labeled as CyQUANT® direct background suppressor I). Cells were incubated for 1 h and fluorescence emission was measured at 535 nm with excitation at 480 nm in a microplate reader (Infinite 200 PRO, Tecan, Grödig, Austria). At least four independent experiments were performed for each concentration. The results from each experiment were transformed into percentage of controls and the LC50 values were graphically obtained from the dose-response curves. The LC50 value was obtained adjusting the dose-response curve to sigmoidal curves (variable slope) using the GraphPad Prisma 6.0 software ([GraphPad-Software, 2015]).

[2] = test system: MDA-MB-231 human breast adenocarcinoma cells; experiment: as above; assay type: cell-based; details: for CC50: Homo sapiens, MDA-MB-231, 72 h, read-out: LC50 ± SD
Method: as §2

[3] = test system: MEF primary mouse embryonic fibroblast; experiment: as above; assay type: cell-based; details: MEF (non-cancerous cells); 72 h
Method: as §2

5-hLOX [4] = biological target: T1, 5-hLOX (Homo sapiens, UniProt P09917); experiment: In vitro 5-hLOX enzyme assay (H2DCFDA fluorescence); assay type: biochemical; details: for Type of inhibition: 5-hLOX; for inhibition at 10 µM: Flavanones at 10 µM
T1 construct: purchased Cayman Chemicals Inc. (Ann Arbor, MI, USA)
T1 sequence (P09917 1-674): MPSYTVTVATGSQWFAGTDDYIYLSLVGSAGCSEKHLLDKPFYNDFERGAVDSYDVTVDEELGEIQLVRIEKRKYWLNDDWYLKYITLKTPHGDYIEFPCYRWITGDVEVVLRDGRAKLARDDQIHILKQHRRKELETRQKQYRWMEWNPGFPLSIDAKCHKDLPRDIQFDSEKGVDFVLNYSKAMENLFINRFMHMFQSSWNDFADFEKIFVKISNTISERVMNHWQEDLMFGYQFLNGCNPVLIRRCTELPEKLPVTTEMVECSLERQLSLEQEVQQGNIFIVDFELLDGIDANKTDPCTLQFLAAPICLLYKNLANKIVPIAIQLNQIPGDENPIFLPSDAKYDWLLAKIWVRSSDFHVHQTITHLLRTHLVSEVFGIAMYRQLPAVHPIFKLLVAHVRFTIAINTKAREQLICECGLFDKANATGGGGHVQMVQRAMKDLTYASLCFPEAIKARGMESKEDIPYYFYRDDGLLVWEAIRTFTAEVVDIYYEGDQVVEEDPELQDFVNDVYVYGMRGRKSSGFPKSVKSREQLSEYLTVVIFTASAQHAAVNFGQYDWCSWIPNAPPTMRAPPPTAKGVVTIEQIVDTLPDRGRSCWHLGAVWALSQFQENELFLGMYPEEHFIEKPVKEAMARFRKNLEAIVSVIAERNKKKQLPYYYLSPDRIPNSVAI
Method: The commercially available enzyme 5-hLOX from Cayman Chemicals Inc. (Ann Arbor, MI, USA), was diluted (1:500) in the assay buffer. This contained 4-(2-hydroxyethyl)-1-piperazineethane sulfonic acid (HEPES) 50 mM, ethylenediamine tetraacetic acid (EDTA) 2 mM, adenosine triphosphate (ATP) 10 μM, and CaCl2 10 μM at pH 7.5) admixed with 10 μM of H2DCFDA. The reaction mixture was incubated for 15 min in the assay plate. Later, 280 μL of buffer and 10 μM of inhibitors were added per well and incubated for 30 min at 37°C. Finally, the reaction was started by adding a suitable concentration of arachidonic acid (0.5 μM) and the fluorescence was read in a multimode detector Synergy™ HT Multi-Mode Microplate Reader (Biotek, Bad Friedrichshall, Germany) […] after incubation at room temperature for 1 h. The IC50 values were obtained for analysis of oxidation of H2DCFDA dye to the highly fluorescent 2’,7’-dichloro-fluorescein (DCF) using the non-linear curve-fitting program. […] All data were collected in duplicate and the assays were performed on different days to ensure reproducibility.

5-hLOX [5] = biological target: T1, 5-hLOX; experiment: as above; assay type: biochemical; details: kinetic assays, inhibitor 0–1 μM, substrate 0.2–5 μM

Work on COc1cc(O)c2c(c1)O[C@H](c1ccc(O)cc1)CC2=O [Compound 1, (-)-(2S)-5,4’-dihydroxy-7-methoxyflavanone] yielded an MIC (E. coli ATCC25922) of over 100 µg/mL, an MIC (S. aureus MRSA 622-4) of over 100 µg/mL and an MIC (S. aureus NTCC8325-4) of over 100 µg/mL. For the same compound, the MIC (S. aureus MRSA 97-7) was over 100 µg/mL, the MIC (E. coli 33.1) was over 100 µg/mL and the CC50 at 72 h ([1]; MEF (non-cancerous cells), 72 h, read-out: LC50 ± SD) was 146 ± 23.4 µM. For the same compound, the CC50 [2] was about 1100 µM, the “LC50 ± SD” value ([2]; MDA-MB-231, 72 h) was “no significant cytotoxic activity” and the “LC50 ± SD” value [3] was “no significant cytotoxic activity”. The IC50 (5-hLOX [4]) was 11.3 µM, the Ki (5-hLOX [4]) was 4.71 µM and the Type of inhibition (5-hLOX [4]) was “non-competitive”. For the same compound, the inhibition at 10 µM (5-hLOX [4]) was 61 ± 1.34%.

For COc1cc(O)c2c(c1)O[C@H](c1ccc(O)c(O)c1)CC2=O [Compound 2, (-)-(2S)-5,3’,4’-trihydroxy-7-methoxyflavanone], the MIC (E. coli ATCC25922) was over 100 µg/mL, the MIC (S. aureus MRSA 622-4) was over 100 µg/mL and the MIC (S. aureus NTCC8325-4) was over 100 µg/mL. It also gave an MIC (S. aureus MRSA 97-7) of 50 µg/mL (≈ 165 µM), an MIC (E. coli 33.1) of over 100 µg/mL and a Ki (5-hLOX [5]) of 0.05 µM. For the same compound, the CC50 at 72 h [1] was 31 ± 3.69 µM, the CC50 [2] was 48.7 ± 9.32 µM and the Type of inhibition (5-hLOX [4]) was “competitive”. The inhibition at 10 µM (5-hLOX [4]) was 93 ± 0.791% and the IC50 (5-hLOX [4]; read-out: IC50 (5-hLOX)) was 0.1 µM.
